Results from ChEMBL document CHEMBL1201862, “PubChem BioAssay data set” (2004).
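Grown in 96-well plates, cells were treated for 48 hours with each compound at five concentrations. Insufficient inhibition: endpoint recorded as highest concentration tested. The concentration for 50% growth inhibition is given as GI50.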 Activity calls are given as the source filed them. Rule as the data show it: active = GI50 up to about 1.1 µM and inactive = higher.

Key:
Experiment in all cases: inhibition of tumour cell growth, NCI panel, 48 h
CCRF-CEM = system: CCRF-CEM
COLO 205 = system: COLO 205
DMS-273 = system: DMS-273
EKVX = system: EKVX
HCT-15 = system: HCT-15
HL-60 = system: HL-60
HOP-62 = system: HOP-62
HOP-92 = system: HOP-92
MOLT-4 = system: MOLT-4
Malme-3M = system: Malme-3M
NCI-H226 = system: NCI-H226
NCI-H522 = system: NCI-H522
OVCAR-8 = system: OVCAR-8
RXF 393 = system: RXF 393
SW-620 = system: SW-620
SN12C = system: SN12C
UACC-257 = system: UACC-257
BT-549 = system: BT-549
MDA-MB-231 = system: MDA-MB-231
MDA-MB-435 = system: MDA-MB-435

Structure (SMILES)	GI50 (CCRF-CEM)	GI50 (COLO 205)	GI50 (DMS-273)	GI50 (EKVX)	GI50 (HCT-15) [µM]	GI50 (HL-60)	GI50 (HOP-62)	GI50 (HOP-92)	GI50 (MOLT-4)	GI50 (Malme-3M)	GI50 (NCI-H226)	GI50 (NCI-H522)	GI50 (OVCAR-8)	GI50 (RXF 393)	GI50 (SW-620)	GI50 (SN12C)	GI50 (UACC-257)	GI50 (BT-549)	GI50 (MDA-MB-231)	GI50 (MDA-MB-435)
COC1=C(C)C(=O)C2C(C1=O)C(c1ccc(OC)c(OC)c1)[C@H]2C (stereo partly specified)	> 100 µM (inactive)	> 100 µM (inactive)	> 100 µM (inactive)	> 100 µM (inactive)	> 100	> 100 µM (inactive)	> 100 µM (inactive)	> 100 µM (inactive)	> 100 µM (inactive)	> 100 µM (inactive)	> 100 µM (inactive)	> 100 µM (inactive)	> 100 µM (inactive)	> 100 µM (inactive)	> 100 µM (inactive)					
O=C(c1ccncc1)n1nc(-c2ccccc2)c(/N=N/c2ccccc2[N+](=O)[O-])c1-c1ccccc1	59.3 µM (inactive)	> 100 µM (inactive)	> 100 µM (inactive)	9.04 µM (inactive)		46.2 µM (inactive)	38.3 µM (inactive)	35.6 µM (inactive)	38.9 µM (inactive)	> 100 µM (inactive)		56 µM (inactive)	56.1 µM (inactive)		67.3 µM (inactive)	> 100 µM (inactive)	40.8 µM (inactive)			
COc1cc2c(cc1OC(=O)CC(C)O)C1C(OC2=O)C(OC(C)=O)C=C2CCN(C)[C@H]21 (stereo partly specified)	> 100 µM (inactive)	81.3 µM (inactive)	47.1 µM (inactive)	65.8 µM (inactive)			21.1 µM (inactive)	17.3 µM (inactive)	47.2 µM (inactive)		27.5 µM (inactive)	97.7 µM (inactive)	39.9 µM (inactive)		> 100 µM (inactive)	38.6 µM (inactive)	> 100 µM (inactive)			
C[N+](C)(C)CC(CC(=O)[O-])C1CC1 (stereo unspecified)	> 100 µM (inactive)	> 100 µM (inactive)	> 100 µM (inactive)	> 100 µM (inactive)	> 100	> 100 µM (inactive)	> 100 µM (inactive)	> 100 µM (inactive)	> 100 µM (inactive)	> 100 µM (inactive)		> 100 µM (inactive)	> 100 µM (inactive)	> 100 µM (inactive)	> 100 µM (inactive)	> 100 µM (inactive)	> 100 µM (inactive)			
FC(F)(F)c1cccc(C2SCc3nc4ccccc4n32)c1 (stereo unspecified)	32.8 µM (inactive)	> 100 µM (inactive)	41.9 µM (inactive)	73.3 µM (inactive)		5.75 µM (inactive)		2.41 µM (inactive)	41.4 µM (inactive)	> 100 µM (inactive)	> 100 µM (inactive)	17.6 µM (inactive)	59.3 µM (inactive)	33.1 µM (inactive)	> 100 µM (inactive)	> 100 µM (inactive)	4.54 µM (inactive)			
Cc1ccc(NC(=O)C(=O)CC(=O)C2CCOC2=O)c(C)c1 (stereo unspecified)	> 100 µM (inactive)	> 100 µM (inactive)	> 100 µM (inactive)	> 100 µM (inactive)	> 100	> 100 µM (inactive)	> 100 µM (inactive)	> 100 µM (inactive)		> 100 µM (inactive)	> 100 µM (inactive)	> 100 µM (inactive)	> 100 µM (inactive)	> 100 µM (inactive)	> 100 µM (inactive)	> 100 µM (inactive)	> 100 µM (inactive)			
O=c1oc2c(O)c(O)cc3c(=O)oc4c(O)c(O)cc1c4c23 [ELLAGIC ACID]	> 10 µM (inactive)	> 10 µM (inactive)	> 10 µM (inactive)	57.4 µM (inactive)	79.8	> 10 µM (inactive)	> 10 µM (inactive)	31 µM (inactive)	> 10 µM (inactive)	> 10 µM (inactive)	23.6 µM (inactive)	24.1 µM (inactive)	18.6 µM (inactive)	> 10 µM (inactive)	> 10 µM (inactive)	38.1 µM (inactive)	> 10 µM (inactive)			
Cc1cc(NCCCCCCCCNc2cc(C)nc3cc(N(C)C)ccc23)c2ccc(N(C)C)cc2n1	5.01 µM (inactive)	1.9 µM (inactive)	2.74 µM (inactive)	7.1 µM (inactive)	34.8	0.711 µM (active)	12.2 µM (inactive)	2.58 µM (inactive)	2 µM (inactive)			2.75 µM (inactive)	6.11 µM (inactive)	12.9 µM (inactive)	6.81 µM (inactive)	1.64 µM (inactive)	3.94 µM (inactive)			
COc1cc(C(O)C(=O)c2cnc3cc([N+](=O)[O-])ccc3n2)ccc1O (stereo unspecified)	> 100 µM (inactive)	> 100 µM (inactive)	> 100 µM (inactive)	72.3 µM (inactive)	> 100	86.5 µM (inactive)	85.5 µM (inactive)		> 100 µM (inactive)	> 100 µM (inactive)			> 100 µM (inactive)	64.1 µM (inactive)	> 100 µM (inactive)	> 100 µM (inactive)	> 100 µM (inactive)			
CCCCCCCCCCCCCCCCCCCCCC(=O)Nc1ccn(C2OC(CO)C(O)C2O)c(=O)n1 (stereo unspecified)	0.191 µM (active)	> 54.2 µM (inactive)	35.6 µM (inactive)	> 100 µM (inactive)	> 96.2	10 µM (inactive)	3.11 µM (inactive)	> 40.8 µM (inactive)	0.273 µM (active)	> 42.4 µM (inactive)	> 100 µM (inactive)	> 100 µM (inactive)	12.4 µM (inactive)	> 100 µM (inactive)	> 57.4 µM (inactive)	> 60.8 µM (inactive)	> 100 µM (inactive)			
C=C1C2CC(OC(C)=O)C3(C)C(c4ccoc4)OC(=O)[C@@H](O)[C@]13OC1C[C@H](OC(C)=O)C(C)(C)[C@H](C(O)C(=O)OC)[C@]12C (stereo partly specified)	> 100 µM (inactive)	> 100 µM (inactive)	> 100 µM (inactive)	> 100 µM (inactive)	> 100	> 100 µM (inactive)		4.17 µM (inactive)	> 100 µM (inactive)		> 100 µM (inactive)		> 100 µM (inactive)		> 100 µM (inactive)	> 100 µM (inactive)				
CCSC1=N/C(=C\c2ccco2)C(NN)=N1	> 50 µM (inactive)	> 50 µM (inactive)		> 50 µM (inactive)	> 50	> 50 µM (inactive)	> 50 µM (inactive)	> 50 µM (inactive)	> 50 µM (inactive)	> 50 µM (inactive)	> 50 µM (inactive)	> 50 µM (inactive)	> 50 µM (inactive)	> 50 µM (inactive)	> 50 µM (inactive)	> 50 µM (inactive)	> 50 µM (inactive)	> 50 µM (inactive)	> 50 µM (inactive)	> 50 µM (inactive)
NNC(=O)C(=O)N/N=C1\CCC(=O)CC1C(=O)CCC(=O)Nc1ccc(Cl)cc1 (stereo unspecified)	> 100 µM (inactive)	> 100 µM (inactive)	> 100 µM (inactive)	> 100 µM (inactive)	94.8	> 100 µM (inactive)			> 100 µM (inactive)	> 100 µM (inactive)	> 100 µM (inactive)		> 100 µM (inactive)	72.4 µM (inactive)	> 100 µM (inactive)	> 100 µM (inactive)	> 100 µM (inactive)			
COc1ccc(Nc2n[nH]c(NS(=O)(=O)c3cc(C)c(Cl)cc3S)n2)cc1	> 100 µM (inactive)	> 100 µM (inactive)		> 100 µM (inactive)	> 100	> 100 µM (inactive)	> 100 µM (inactive)	> 100 µM (inactive)	> 100 µM (inactive)	> 100 µM (inactive)	> 100 µM (inactive)	> 100 µM (inactive)	> 100 µM (inactive)	> 100 µM (inactive)	> 100 µM (inactive)	> 100 µM (inactive)	> 100 µM (inactive)	> 100 µM (inactive)	> 100 µM (inactive)	> 100 µM (inactive)
Cc1ccnc(NS(=O)(=O)c2ccc(NC(=O)c3ccc4nc5ccccc5c(Nc5ccc(S(=O)(=O)Nc6nccc(C)n6)cc5)c4c3)cc2)n1	42.3 µM (inactive)	> 100 µM (inactive)		> 100 µM (inactive)	> 100	94.4 µM (inactive)	> 100 µM (inactive)	23.2 µM (inactive)	39.9 µM (inactive)	78.5 µM (inactive)	> 100 µM (inactive)	39.4 µM (inactive)	> 100 µM (inactive)	13.6 µM (inactive)	> 100 µM (inactive)	60.3 µM (inactive)	> 100 µM (inactive)	14.3 µM (inactive)	40.7 µM (inactive)	66.1 µM (inactive)
NC(=S)N1N=C2c3ccccc3CCC[C@H]2[C@@H]1c1ccccc1	0.528 µM (active)	1.67 µM (inactive)	0.721 µM (active)	9.23 µM (inactive)	1.29	0.589 µM (active)	2.2 µM (inactive)		0.638 µM (active)	0.488 µM (active)	2.6 µM (inactive)	0.361 µM (active)	3.2 µM (inactive)	1.7 µM (inactive)	0.385 µM (active)	2.52 µM (inactive)	2.21 µM (inactive)	0.406 µM (active)	0.513 µM (active)	0.0977 µM (active)
COc1cc(/C=C\c2ccc(Cl)cc2)cc(OC)c1OC	0.0964 µM (active)	0.443 µM (active)	0.149 µM (active)	0.439 µM (active)	0.196	0.0251 µM (active)	0.302 µM (active)	0.326 µM (active)	0.0762 µM (active)	0.184 µM (active)	0.24 µM (active)	0.111 µM (active)	0.363 µM (active)	0.2 µM (active)	0.0552 µM (active)	0.508 µM (active)	0.804 µM (active)			
